Series [1] concerns Salmonella typhimurium TA98. The note with it: for Revertant/plate: TA98 without S9; for Specific mutagenic activity (revertant increase/dose unit): linear regression.
In series [2] the test system is Salmonella typhimurium TA100. To be noted: for Specific mutagenic activity (revertant increase/dose unit): linear regression; for Revertant/plate: TA100 without S9.
Series [3] deals with human leukocytes. Put plainly: Modified comet assay with ENDOIII for oxidised bases. To be noted: 37°C, 1 hour.
Protocol: Oxidatively generated damage can be evaluated easily by comparing the DNA migration in enzyme-or buffer-treated samples. The comet assay, with the modification of an extra step after lysis in which DNA is digested with the repair enzyme, was performed according to Collins et al. […] ENDOIII was isolated from bacteria containing over-producing plasmids (Collin's Laboratory, Rowett Research Institute, Bucksburn, Aberdeen, UK). The enzyme-treated gels reveal alkali labile sites and strand breaks (ALS/SB) and oxidised bases (ALS/SB + OX). Assuming a linear dose response, subtraction of (ALS/SB) from (ALS/SB + OX) gives a measure of oxidised bases. The SPSS 11 statistical package was used to analyse statistical differences between samples. Statistical differences between controls and treated samples were first determined with the nonparametric Wilcoxon rank-sum test for each experiment. The mean values from the repeated experiments were used in a one-way analysis of variance. Analysis of variance was followed by single or multiple pairwise comparisons. Data were tested for normality and homogeneity of variance. When these criteria were met, the data were compared using Dunnett's version of the t-test.
The subject of series [4] is human leukocytes. It counts as cell-based. To be noted: 1 hour treatment, measured immediately after exposure; NFX 0–348 μM, BNZ 0–348 μM, MTZ 0–585 μM.
The subject of series [5] is immortalized lymphocytes (Epstein-Barr virus lymphoblastoid cell line). Put plainly: Long-term exposure cytotoxicity assay (MTS). It counts as cell-based, human. To be noted: 48 hours treatment.
The subject of another series is human lymphocytes. Put plainly: Micronucleus (MN) assay, cytokinesis block. The class given is cell-based. As to the method: The MN assay was performed using blood samples from healthy, nonsmoking males, as provided by the AVIS (Italian Association of Voluntary Blood Donors). […] Cytochalasin-B was added 44 hours after the start of incubation at a final concentration of 6 μg/mL; at 48 hours, the lymphocytes were treated with the different drugs. […] Each treatment was tested with cells from two donors, performed in duplicate separate cultures (i.e., four cultures were set up for each treatment). After incubation, the lymphocytes were collected and resuspended in a mild hypotonic solution (0.075 M KCl) and then added with an ice-cold 5 : 3 acetic acid : methanol solution. After centrifugation (500 g, 10 min), the pellets were resuspended in cold (-20°C) methanol and maintained at -20°C (at least 24 hours). […] Scoring was done using an […] (Munich, Germany) light microscope at 1000X magnification. […] NDI data were analyzed by Student's t-test.

The conditions of series [6]: therapeutically treated patients; no reference given; cited from earlier work.

Where two headings read alike, the source gives them in different places. Marks after values point to notes of the source that are not given here.

In turn, `O=[N+]([O-])c1ccc2c(c1)Cc1ccccc1-2` [2-NF, 2-nitrofluorene] displayed a Revertant/plate in series [1] (15 μg/plate) of 169 ± 7.
For `O=C(Cn1ccnc1[N+](=O)[O-])NCc1ccccc1` [BNZ, N-benzyl-2-(2-nitroimidazol-1-yl)acetamide], in series [2] (TA100), the “Lowest effective dose / concentration significantly increasing the revertant number” value turned out to be 5 µg/mL. Also, the Revertants is given as 406± 13 in series [2] (TA100 +S9, 5 µg/plate); 811± 55 in series [2] (TA100 +S9, 10 µg/plate); 1445± 85 in series [2] (TA100 +S9, 20 µg/plate); 3117± 169 in series [2] (TA100 +S9, 40 µg/plate); 4901± 166 in series [2] (TA100 +S9, 80 µg/plate); 498± 25 in series [2] (TA100 -S9, 5 µg/plate). The Revertants in series [2] (TA100 -S9, 10 µg/plate) is 943± 27; in series [2] (TA100 -S9, 20 µg/plate), 1801± 67; in series [2] (TA100 -S9, 40 µg/plate), 3344± 104; in series [2] (TA100 -S9, 80 µg/plate) it was 5287± 81; in series [1] (TA98 +S9, 5 µg/plate), 20± 2; in series [1] (TA98 +S9, 10 µg/plate), 18± 2. The Revertants in series [1] (TA98 +S9, 20 µg/plate) turned out to be 22± 8; in series [1] (TA98 +S9, 40 µg/plate) it was 24± 5; in series [1] (TA98 +S9, 80 µg/plate), 23± 4; in series [1] (TA98 +S9, 125 µg/plate), 34± 2; in series [1] (TA98 +S9, 250 µg/plate), 43± 9; in series [1] (TA98 +S9, 500 µg/plate) it was 44± 6. Moreover, the Revertants in series [1] (TA98 -S9, 5 µg/plate) is reported as 10± 2; in series [1] (TA98 -S9, 10 µg/plate) it was 16± 4; in series [1] (TA98 -S9, 20 µg/plate) it was 14± 6; in series [1] (TA98 -S9, 40 µg/plate), 15± 1; in series [1] (TA98 -S9, 80 µg/plate) it was 14± 2; in series [1] (TA98 -S9, 125 µg/plate), 26± 3. In addition, the Revertants in series [1] (TA98 -S9, 250 µg/plate) is 39± 3; in series [1] (TA98 -S9, 500 µg/plate) it was 45± 5. Further, the “Specific mutagenic activity (revertant increase/dose unit)” value in series [2] (TA100 with S9 mix) is reported as 60.92 (0.98); in series [2] (TA100 without S9 mix), 64.96 (0.98); in series [1] (TA98 with S9 mix), 0.10 (0.93); in series [1] (TA98 without S9 mix) it was 0.07 (0.88). The “Specific genotoxic activity, DNA migration/dose unit (II: comet assay modified with ENDOIII, DNA oxidative damage)” value with human leukocytes [3] is 0.9077 (r ^2 = 0.8351) μm/μM. Also, the Cellular survival rate entry in the series with human leukocytes [4] was “did not appear to be affected”. For the same compound, the “Cytotoxic effect on cultured lymphocytes” value in series [5] is on record as “did not show any significant effects”. Moreover, the “Effect on MN frequency” value in the series with human lymphocytes (24-hours treated lymphocytes) is given as “did not alter MN frequency”; in the series with human lymphocytes (72 hours treated lymphocytes) it was “increase of MN frequency”. Besides, the MN with human lymphocytes (24h, 3.8 µM) is 4.0± 0.5 x10-3 BN; in the series with human lymphocytes (24h, 7.7 µM), 3.5± 1.0 x10-3 BN; with human lymphocytes (24h, 15.4 µM) it was 2.5± 0.5 x10-3 BN; in the series on human lymphocytes (24h, 30.7 µM), 4.5± 1.0 x10-3 BN; with human lymphocytes (24h, 61.5 µM), 3.5± 0.5 x10-3 BN; in the series on human lymphocytes (24h, 96.1 µM) it was 3.0± 0.5 x10-3 BN. The MN in the series with human lymphocytes (24h, 192.1 µM) is reported as 5.0± 1.0 x10-3 BN; in the series with human lymphocytes (24h, 384.2 µM) it was 3.5± 0.5 x10-3 BN; with human lymphocytes (72 hours, 3.8 μM), 3.5 ± 1.0 ×10^−3 BN; with human lymphocytes (72 hours, 7.7 μM) it was 4.0 ± 1.0 ×10^−3 BN; with human lymphocytes (72 hours, 15.4 μM) it was 4.0 ± 1.5 ×10^−3 BN; in the series with human lymphocytes (72 hours, 30.7 μM), 3.5 ± 1.0 ×10^−3 BN. Further, the MN is reported as 3.0 ± 0.5 ×10^−3 BN with human lymphocytes (72 hours, 61.5 μM); 9.0 ± 0.5 ×10^−3 BN with human lymphocytes (72 hours, 96.1 μM); 13.0 ± 1.0^b ×10^−3 BN in the series with human lymphocytes (72 hours, 192.1 μM); 16.5 ± 0.5^b ×10^−3 BN in the series with human lymphocytes (72 hours, 384.2 μM). The NDI was found to be 1.97± 0.11 with human lymphocytes (24h, 3.8 µM); 1.97± 0.07 with human lymphocytes (24h, 7.7 µM); 2.00± 0.06 in the series with human lymphocytes (24h, 15.4 µM); 1.99± 0.07 in the series with human lymphocytes (24h, 61.5 µM); 2.01± 0.03 in the series with human lymphocytes (24h, 96.1 µM); 2.07± 0.07 in the series on human lymphocytes (24h, 192.1 µM). Further, the NDI was found to be 1.93 ± 0.11 with human lymphocytes (72 hours, 3.8 μM); 2.00 ± 0.07 in the series on human lymphocytes (72 hours, 7.7 μM); 1.98 ± 0.06 with human lymphocytes (72 hours, 15.4 μM); 1.99 ± 0.05 in the series on human lymphocytes (72 hours, 30.7 μM); 2.06 ± 0.07 with human lymphocytes (72 hours, 61.5 μM); 2.05 ± 0.03 in the series with human lymphocytes (72 hours, 96.1 μM). Moreover, the NDI amounted to 2.00 ± 0.07 in the series on human lymphocytes (72 hours, 192.1 μM) and 1.93 ± 0.10 with human lymphocytes (72 hours, 384.2 μM). Moreover, the “NDI (%)” value in the series with human lymphocytes (24h, 3.8 µM) was found to be 94± 5%; in the series with human lymphocytes (24h, 7.7 µM), 94± 3%; in the series on human lymphocytes (24h, 15.4 µM) it was 95± 3%; in the series with human lymphocytes (24h, 30.7 µM), 97± 2%; with human lymphocytes (24h, 61.5 µM), 95± 3%; in the series with human lymphocytes (24h, 96.1 µM), 96± 1%. The “NDI (%)” value is 99± 3% in the series with human lymphocytes (24h, 192.1 µM); 97± 5% in the series on human lymphocytes (24h, 384.2 µM); 100 ± 6% with human lymphocytes (72 hours, 3.8 μM); 104 ± 4% with human lymphocytes (72 hours, 7.7 μM); 102 ± 3% with human lymphocytes (72 hours, 15.4 μM); 103 ± 3% with human lymphocytes (72 hours, 30.7 μM). The “NDI (%)” value in the series with human lymphocytes (72 hours, 61.5 μM) is 107 ± 4%; in the series on human lymphocytes (72 hours, 96.1 μM), 106 ± 2%; in the series on human lymphocytes (72 hours, 192.1 μM) it was 104 ± 4%; in the series on human lymphocytes (72 hours, 384.2 μM), 100 ± 6%. In the series with human lymphocytes (72 hours treated lymphocytes), the “Effect on nuclear division (NDI)” value is reported as “without some decrease of nuclear division”.
With `NC(=O)C(=Cc1ccc([N+](=O)[O-])o1)c1ccco1` [FYFA, 2-(2-furyl)-3-(5-nitro-2-furyl)acrylamide], the figures for the Revertant/plate in series [2] (20 ng/plate) and in series [1] (20 ng/plate) were 1133 ± 70 and 189 ± 16, respectively.
In the case of `CCN(CC)CCNc1ccc(CO)c2sc3ccccc3c(=O)c12` [HYC, hycantone], the values for the Revertant/plate in series [2] (positive control 75 μg/plate) and in series [1] (positive control 75 μg/plate) were 968 ± 103 and 870 ± 90, respectively.
For `Cc1ncc([N+](=O)[O-])n1CCO` [MTZ, 2-(2-methyl-5-nitro-1H-imidazol-1-yl)ethanol], in series [5], the “Cytotoxic effect on cultured lymphocytes” value is recorded as “did not show any significant effects”. Further, the NDI in the series on human lymphocytes (24h, 5.9 µM) worked out at 1.97± 0.07; in the series with human lymphocytes (24h, 11.7 µM) it was 1.97± 0.05; with human lymphocytes (24h, 46.8 µM) it was 2.01± 0.10; with human lymphocytes (24h, 93.6 µM), 1.99± 0.04; in the series on human lymphocytes (24h, 146.2 µM) it was 1.97± 0.10; in the series with human lymphocytes (24h, 292.4 µM), 2.01± 0.03. The NDI in the series on human lymphocytes (24h, 584.8 µM) amounted to 1.94± 0.06; in the series with human lymphocytes (72h, 2.9 µM), 1.74± 0.11; in the series on human lymphocytes (72h, 5.9 µM) it was 1.75± 0.17; in the series on human lymphocytes (72h, 11.7 µM), 1.74± 0.10; in the series with human lymphocytes (72h, 46.8 µM) it was 1.81± 0.09; in the series on human lymphocytes (72h, 93.6 µM), 1.73± 0.08. In addition, the NDI was 1.84± 0.11 in the series with human lymphocytes (72h, 146.2 µM); 1.76± 0.07 with human lymphocytes (72h, 292.4 µM); 1.74± 0.12 in the series with human lymphocytes (72h, 584.8 µM). Moreover, the “NDI (%)” value with human lymphocytes (24h, 5.9 µM) is given as 100± 4%; in the series on human lymphocytes (24h, 11.7 µM) it was 100± 3%; with human lymphocytes (24h, 46.8 µM) it was 102± 5%; in the series on human lymphocytes (24h, 93.6 µM), 101± 2%; with human lymphocytes (24h, 146.2 µM), 100± 5%; in the series with human lymphocytes (24h, 292.4 µM) it was 102± 2%. The “NDI (%)” value with human lymphocytes (24h, 584.8 µM) came out at 98± 3%; in the series on human lymphocytes (72h, 2.9 µM) it was 100± 6%; in the series with human lymphocytes (72h, 5.9 µM), 101± 10%; in the series with human lymphocytes (72h, 11.7 µM), 100± 6%; with human lymphocytes (72h, 93.6 µM), 100± 5%; with human lymphocytes (72h, 146.2 µM) it was 106±6%. The “NDI (%)” value in the series on human lymphocytes (72h, 292.4 µM) is 102± 4%; in the series with human lymphocytes (72h, 584.8 µM), 100± 7%. Moreover, in the series with human lymphocytes (72 hours treated lymphocytes), the “Effect on nuclear division (NDI)” value is “did not induce any alteration”. Besides, in series [6], the “Plasmatic concentration in treated patients” value was 8 to 13 µg/mL.
On to `CCOS(C)(=O)=O` [ethyl methane sulfonate], for which the “MN frequency in binucleated cells” value with human lymphocytes (male, human, 24 h, 1 μM) is listed as 15.0 ± 2.8 ×10^−3 BN; with human lymphocytes (male, human, 24 h, 120 µg/ml), 15.0± 2.8 x10-3 BN.
As for bleomycin, the “MN frequency in binucleated cells” value in the series on human lymphocytes (positive control, 6µg/ml) is reported as 26.0± 4.0 x10-3 BN.

The values above are taken from PMC2963127, “Genotoxicity Revaluation of Three Commercial Nitroheterocyclic Drugs: Nifurtimox, Benznidazole, and Metronidazole” (Journal of Parasitology Research, 2009).
